Tested on: SARS-CoV-2
Test: microbe, parasite or virus in culture
Details: Severe acute respiratory syndrome coronavirus 2, Vero C1008, 48 h

Structure (SMILES)	IC50 [µM]	IC50 (read-out: pIC50 (converted)) [µM]
CN(C)CCc1c[nH]c2ccc(CS(=O)(=O)N3CCCC3)cc12 [ALMOTRIPTAN]	> 20	> 20
N=C(N)NCCN1CCCCCCC1 [GUANETHIDINE]	> 20	> 20
O=C(CCCCC(=O)Nc1c(I)cc(I)c(C(=O)O)c1I)Nc1c(I)cc(I)c(C(=O)O)c1I [IODIPAMIDE]	> 20	> 20
CN(NC(=O)CC(=O)NN(C)C(=S)c1ccccc1)C(=S)c1ccccc1 [ELESCLOMOL]	> 20	> 20
OCC1CCC(n2cnc3c(O)ncnc32)O1 (stereo not given)	> 20	> 20
CC(c1cc2ccccc2s1)N(O)C(N)=O (stereo not given) [ZILEUTON]	> 20	> 20
S=C(Nc1ccccc1)Nc1nccs1	> 20	> 20
CCCc1c(OCCCOc2ccc(C(C)=O)c(OC)c2CCC)ccc2c1OC(C(=O)O)CC2 (stereo not given) [SC-41390]	> 20	> 20
O=C(Nc1c[nH]nc1-c1nc2ccc(CN3CCOCC3)cc2[nH]1)NC1CC1 [AT-9283]	> 20	> 20
COc1ccccc1N1CCN(CCCC(O)c2ccc(F)cc2)CC1 (stereo not given) [ANISOPIROL]	> 20	> 20
Cc1ccc(-n2nccn2)c(C(=O)N2CCN(c3nc4cc(Cl)ccc4o3)CC[C@H]2C)c1 [SUVOREXANT]	> 20	> 20
Cc1c(O)c(=O)ccn1C [DEFERIPRONE]	> 20	> 20
COc1ccc(Cc2cnc(N)nc2N)cc1OC [DIAVERIDINE]	> 20	> 20
Cc1nc2sccn2c(=O)c1CCN1CCC(=C(c2ccc(F)cc2)c2ccc(F)cc2)CC1 [RITANSERIN]	> 20	> 20
CC(CCC(=O)O)C1CCC2C3C[C@H](O)[C@@H]4C[C@H](O)CC[C@]4(C)C3CC[C@]12C (stereo not given in full)	> 20	> 20
CC12CC(=O)C3C(CC[C@H]4CC(O)CCC34C)C1CCC2C(=O)CO (stereo not given in full)	> 20	> 20
CC(C)(CO)[C@@H](O)C(=O)NCCC(=O)O [PANTOTHENIC ACID]	> 20	> 20
CC(O)(P(=O)(O)O)P(=O)(O)O [ETIDRONIC ACID]	> 20	> 20
O=C1CN=C(c2ccccn2)c2cc(Br)ccc2N1 [BROMAZEPAM]	> 20	> 20
O=C(O)CC[N+](=O)[O-]	> 20	> 20
CN1CCN(CCCN2c3ccccc3Sc3ccc(Cl)cc32)CC1 [PROCHLORPERAZINE]	> 20	> 20
CCCn1c(=O)c2nc(C34CC5CC(CC(C5)C3)C4)[nH]c2n(CCC)c1=O	> 20	> 20
COc1ccc(-c2nc3cc(C4=NNC(=O)C[C@H]4C)ccc3[nH]2)cc1	> 20	> 20
CC(C)c1ccc(C(=O)NCCOc2ccc(C(=O)O)cc2)cc1	> 20	> 20

Structure (SMILES)	IC50 [µM]	IC50 (read-out: pIC50 (converted)) [µM]
CCCCCN(CCCCC)C(=O)C(CCC(=O)O)NC(=O)c1ccc(Cl)c(Cl)c1 (stereo not given) [LORGLUMIDE]	> 20	> 20
COc1ccc(S(=O)(=O)N2C(=O)[C@@](c3ccccc3OC)(N3C[C@H](O)C[C@H]3C(=O)N(C)C)c3cc(Cl)ccc32)c(OC)c1	> 20	> 20
CCC(C)CCCCC(=O)N[C@@H](CCNCS(=O)(=O)O)C(=O)N[C@H](C(=O)N[C@@H](CCNCS(=O)(=O)O)C(=O)N[C@H]1CCNC(=O)[C@H]([C@@H](C)O)NC(=O)[C@@H](CCNCS(=O)(=O)O)NC(=O)[C@@H](CCNCS(=O)(=O)O)NC(=O)[C@H](CC(C)C)NC(=O)[C@@H](CC(C)C)NC(=O)[C@H](CCNCS(=O)(=O)O)NC1=O)[C@@H](C)O (stereo not given in full)	> 20	> 20
O=C(C[n+]1ccn(CC(OCc2ccc(Cl)cc2Cl)c2ccc(Cl)cc2Cl)c1)c1ccc(F)cc1 (stereo not given) [FLUDAZONIUM]	> 20	> 20
CCCCCCOc1ccccc1C(N)=O [EXALAMIDE]	> 20	> 20
CCOC(=O)c1[nH]c2cc(OC)c(OC)cc2c1CCN1CCN(c2ccccc2)CC1 [ALPERTINE]	> 20	> 20
O=C(NC1CCCCC1)NS(=O)(=O)c1ccc2c(c1)CCC2 [GLYHEXAMIDE]	> 20	> 20
CC12CCC3C(CC[C@H]4CC(=O)CCC34C)C1CCC2C(=O)CO (stereo not given in full)	> 20	> 20
CC(C)c1nc(CN(C)C(=O)N[C@H](C(=O)N[C@@H](Cc2ccccc2)C[C@H](O)[C@H](Cc2ccccc2)NC(=O)OCc2cncs2)C(C)C)cs1 [RITONAVIR]	> 50.1	> 50.1
Cc1ccccc1C(=O)Nc1ccc(C(=O)N2CCCC(O)c3cc(Cl)ccc32)c(C)c1 (stereo not given) [TOLVAPTAN]	> 20	> 20
CCCCCCCCCCCCCCCC[N+](C)(C)C [CETRIMONIUM]	> 20	> 20
COc1cc2c(cc1OC)C1Cc3ccc(OC)c(OC)c3CN1CC2 (stereo not given)	> 20	> 20
CC(=O)OC1CC(OC2C(O)CC(OC3C(O)CC(OC4CCC5(C)C(CCC6C5CC(O)C5(C)C(C7=CC(=O)OC7)CCC65O)C4)OC3C)OC2C)OC(C)C1OC1OC(CO)C(O)C(O)C1O (stereo not given)	> 20	> 20
CC(=O)[C@]1(N)Cc2c(O)c3c(c(O)c2[C@@H](O[C@H]2C[C@H](O)[C@H](O)CO2)C1)C(=O)c1ccccc1C3=O [AMRUBICIN]	> 20	> 20
CCCCCCNC(=O)n1cc(F)c(=O)[nH]c1=O [CARMOFUR]	> 20	> 20
CC(=O)N(CC(O)CO)c1c(I)c(C(=O)NCC(O)CO)c(I)c(C(=O)NCC(O)CO)c1I (stereo not given) [IOHEXOL]	> 20	> 20
O=C1CCC(c2ccc(-n3ccnc3)cc2)=NN1 [IMAZODAN]	> 20	> 20
O=C(O)CC/C=C\C[C@H]1CO[C@@H](c2ccccc2Cl)O[C@H]1c1ccccc1O	> 20	> 20
O=C(O)c1ccc(CN2CC3CC2CN3Cc2ccc(Oc3ccc(-c4ncco4)cc3)cc2)cc1 (stereo not given)	> 20	> 20
C=CCn1c(=O)c2cnc(Nc3ccc(N4CCN(C)CC4)cc3)nc2n1-c1cccc(C(C)(C)O)n1 [ADAVOSERTIB]	> 20	> 20
CN(C)[C@@H]1C(O)=C(C(N)=O)C(=O)[C@@]2(O)C(O)=C3C(=O)c4c(O)ccc(Cl)c4[C@@H](O)[C@H]3C[C@@H]12 [DEMECLOCYCLINE]	> 20	> 20
C[C@]12C[C@H]3S[C@H]3C[C@@H]1CC[C@@H]1[C@@H]2CC[C@]2(C)[C@@H](O)CC[C@@H]12 [EPITIOSTANOL]	> 20	> 20
CN(CCCCCCCCCCN(C)C(=O)Oc1cccc([N+](C)(C)C)c1)C(=O)Oc1cccc([N+](C)(C)C)c1	> 20	> 20
O=C(O)c1cc(/N=N/c2ccc(S(=O)(=O)Nc3ccccn3)cc2)ccc1O [SULFASALAZINE]	> 20	> 20

Structure (SMILES)	IC50 [µM]	IC50 (read-out: pIC50 (converted)) [µM]
CCCC(CCC)C(=O)O [VALPROIC ACID]	> 20	> 20
C[C@H](N[C@@H](CCc1ccccc1)C(=O)O)C(=O)N1CCC[C@H]1C(=O)O [ENALAPRILAT ANHYDROUS]	> 20	> 20
CCN(CC)C(=O)C1(c2ccccc2)CC1CN (stereo not given)	> 20	> 20
CS(=O)(=O)OC[C@H](O)[C@@H](O)COS(C)(=O)=O [TREOSULFAN]	> 20	> 20
CN[C@@H]1[C@H](O[C@H]2[C@H](O[C@@H]3[C@@H](O)[C@H](O)[C@@H](NC(=N)N)[C@H](O)[C@H]3NC(=N)N)O[C@@H](C)[C@]2(O)CO)O[C@@H](CO)[C@H](O)[C@H]1O	> 20	> 20
CCCC(=O)O[C@]1(C(=O)CCl)C(C)CC2C3CCC4=CC(=O)C=CC4(C)[C@@]3(F)C(=O)CC21C (stereo not given in full)	> 20	> 20
CCCCCCCCCCCCCCCC(=O)OCC(NC(=O)C(Cl)Cl)C(O)c1ccc([N+](=O)[O-])cc1 (stereo not given)	> 20	> 20
CC(C)CC(NC(=O)C(Cc1ccccc1)NC(=O)CNC(=O)C(C)NC(=O)C(N)Cc1ccc(O)cc1)C(=O)O (stereo not given)	> 20	> 20
C[C@@H]1CCO[C@H]2Cn3cc(C(=O)NCc4ccc(F)cc4F)c(=O)c(O)c3C(=O)N12 [DOLUTEGRAVIR]	> 20	> 20
O=C(O)C1CCc2cc(C3CCCCC3)c(Cl)cc21 (stereo not given)	> 20	> 20
C[C@H](CCC(=O)O)[C@H]1CC[C@H]2[C@@H]3[C@H](O)CC4C[C@H](O)CC[C@]4(C)[C@H]3CC[C@]12C (stereo not given in full)	> 20	> 20
Nc1ccccc1S(N)(=O)=O	> 20	> 20
CO[C@H]1C=C2CCN(C)[C@H]2C2c3cc4c(cc3C(=O)O[C@@H]21)OCO4 (stereo not given in full)	> 20	> 20
CCCCCCCCCCCCCCC1(C(=O)OC)CO1 (stereo not given) [METHYL PALMOXIRATE]	> 20	> 20
FC(F)c1nc2ccccc2n1-c1nc(N2CCOCC2)nc(N2CCOCC2)n1 [ZSTK-474]	> 20	> 20
Cc1cccc(C)c1NC(=O)C1CCCCN1C (stereo not given) [MEPIVACAINE]	> 20	> 20
CN1C2CCCC1CC(=O)C2	> 20	> 20
CC1=C(C)C(=O)C(CCCCC#CCCCC#CCO)=C(C)C1=O [DOCEBENONE]	> 20	> 20
Cc1cc(C)cc(OCC2CNC(=O)O2)c1 (stereo not given) [METAXALONE]	> 20	> 20
CCC1(CC(=O)O)OCC(Cc2ccccc2)c2c1[nH]c1ccccc21 (stereo not given) [PEMEDOLAC]	> 20	> 20
Nc1ccc(S(=O)(=O)Nc2cnc3ccccc3n2)cc1 [SULFAQUINOXALINE]	> 20	> 20
C[C@H](CCC(=O)NCCS(=O)(=O)O)[C@H]1CC[C@H]2[C@@H]3[C@@H](O)C[C@@H]4C[C@H](O)CC[C@]4(C)[C@H]3CC[C@]12C [TAURURSODIOL]	> 20	> 20

From ChEMBL document CHEMBL4651402, “Screening of ~5500 FDA-approved drugs and clinical candidates for anti-SARS-CoV-2 activity” (2021)
